Laboratory results: ChEMBL document CHEMBL1201862, “PubChem BioAssay data set” (2004)
The source made the active and inactive calls.

Columns and labels:
HEK293 [1] = assay: cells; assay type: functional, cell-based; conditions: Homo sapiens
HEK293 [2] = assay: NOD1 signaling inhibitors, primary screen, cell-based, luminescence, uHTS (AID 1578); assay type: functional; conditions: Homo sapiens
Tumor necrosis factor = Tumor necrosis factor (Homo sapiens, UniProt P01375); assay: TNFa-triggered NF-kB activation inhibitors, SAR follow-up, cell-based, revised (AID 2337); assay type: functional
Tumor necrosis factor, sequence (P01375 whole entry): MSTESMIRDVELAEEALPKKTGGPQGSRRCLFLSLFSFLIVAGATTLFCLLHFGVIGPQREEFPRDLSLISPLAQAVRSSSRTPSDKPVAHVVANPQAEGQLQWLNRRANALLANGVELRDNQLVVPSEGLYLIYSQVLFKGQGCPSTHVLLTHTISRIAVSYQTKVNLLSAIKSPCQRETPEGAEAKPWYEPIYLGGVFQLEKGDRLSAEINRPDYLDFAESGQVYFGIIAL

HEK293 [3] = assay: cells; assay type: functional, cell-based; conditions: Homo sapiens; remark: listed apart in the source
[4] = biological target: T1, Nucleotide-binding oligomerization domain-containing protein 1 (Homo sapiens, UniProt Q9Y239); assay: NOD1 signaling inhibitors, SAR follow-up, revised (AID 2333); assay type: functional
T1 sequence (Q9Y239 whole entry): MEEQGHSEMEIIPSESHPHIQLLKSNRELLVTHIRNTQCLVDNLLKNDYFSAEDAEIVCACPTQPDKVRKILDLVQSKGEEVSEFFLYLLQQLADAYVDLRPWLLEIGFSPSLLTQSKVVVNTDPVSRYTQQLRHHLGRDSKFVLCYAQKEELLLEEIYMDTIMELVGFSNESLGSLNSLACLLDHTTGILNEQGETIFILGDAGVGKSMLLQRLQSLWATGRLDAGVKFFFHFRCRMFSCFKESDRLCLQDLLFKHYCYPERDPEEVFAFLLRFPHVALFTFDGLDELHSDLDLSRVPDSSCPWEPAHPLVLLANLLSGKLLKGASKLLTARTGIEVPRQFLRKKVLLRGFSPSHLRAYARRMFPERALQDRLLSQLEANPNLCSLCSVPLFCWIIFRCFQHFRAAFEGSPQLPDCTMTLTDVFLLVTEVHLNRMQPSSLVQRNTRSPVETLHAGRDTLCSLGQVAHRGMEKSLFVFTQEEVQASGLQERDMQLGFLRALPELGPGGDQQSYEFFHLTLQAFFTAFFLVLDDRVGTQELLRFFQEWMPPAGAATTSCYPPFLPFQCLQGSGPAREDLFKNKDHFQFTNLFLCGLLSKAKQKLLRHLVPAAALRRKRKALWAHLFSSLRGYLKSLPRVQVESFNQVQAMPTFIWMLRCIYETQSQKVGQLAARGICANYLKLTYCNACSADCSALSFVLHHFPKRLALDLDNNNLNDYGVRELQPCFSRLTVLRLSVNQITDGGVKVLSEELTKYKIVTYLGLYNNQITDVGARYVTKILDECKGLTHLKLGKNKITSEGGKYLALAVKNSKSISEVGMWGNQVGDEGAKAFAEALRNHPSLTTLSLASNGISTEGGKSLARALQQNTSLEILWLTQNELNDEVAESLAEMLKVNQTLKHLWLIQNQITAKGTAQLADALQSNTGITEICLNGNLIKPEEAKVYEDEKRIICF

[5] = biological target: Nucleotide-binding oligomerization domain-containing protein 2 (Homo sapiens, UniProt Q9HC29); assay: PubChem AID 2334; assay type: functional
Nucleotide-binding oligomerization domain-containing protein 2, sequence (Q9HC29 whole entry, the tested form may be a part): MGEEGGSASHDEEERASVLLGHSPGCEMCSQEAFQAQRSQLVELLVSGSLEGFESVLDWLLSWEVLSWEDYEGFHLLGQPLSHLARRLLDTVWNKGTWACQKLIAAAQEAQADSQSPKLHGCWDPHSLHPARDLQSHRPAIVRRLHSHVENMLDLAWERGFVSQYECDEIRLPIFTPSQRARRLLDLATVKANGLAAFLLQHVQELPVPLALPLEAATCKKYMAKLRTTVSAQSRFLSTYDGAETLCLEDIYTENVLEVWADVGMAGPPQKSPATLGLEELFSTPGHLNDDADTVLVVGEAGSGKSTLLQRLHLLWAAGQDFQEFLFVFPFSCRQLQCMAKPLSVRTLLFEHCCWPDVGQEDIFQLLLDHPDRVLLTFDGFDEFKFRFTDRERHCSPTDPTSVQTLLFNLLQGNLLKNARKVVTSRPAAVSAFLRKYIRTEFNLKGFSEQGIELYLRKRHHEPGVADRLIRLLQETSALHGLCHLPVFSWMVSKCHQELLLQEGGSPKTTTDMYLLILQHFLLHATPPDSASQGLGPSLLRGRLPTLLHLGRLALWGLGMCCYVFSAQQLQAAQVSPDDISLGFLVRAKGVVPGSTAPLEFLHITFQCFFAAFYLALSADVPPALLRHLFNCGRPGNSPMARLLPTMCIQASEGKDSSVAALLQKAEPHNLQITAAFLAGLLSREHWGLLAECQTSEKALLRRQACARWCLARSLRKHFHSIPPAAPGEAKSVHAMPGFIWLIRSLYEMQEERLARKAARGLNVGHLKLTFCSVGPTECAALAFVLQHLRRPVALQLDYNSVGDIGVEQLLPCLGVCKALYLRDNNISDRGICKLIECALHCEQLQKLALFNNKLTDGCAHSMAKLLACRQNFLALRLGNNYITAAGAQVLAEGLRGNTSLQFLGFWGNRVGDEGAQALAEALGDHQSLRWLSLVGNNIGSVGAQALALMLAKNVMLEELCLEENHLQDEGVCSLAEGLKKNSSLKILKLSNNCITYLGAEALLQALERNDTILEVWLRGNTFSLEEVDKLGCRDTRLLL

HEK293 [6] = assay: NOD2 signaling inhibitors in MDP-stimulated cells, cell-based, uHTS, luminescence (AID 2001); assay type: functional; conditions: Homo sapiens
HEK293 [7] = assay: cells; conditions: Homo sapiens
[8] = biological target: T2, Polyadenylate-binding protein 1 (Homo sapiens, UniProt P11940); assay: PABP inhibition in translation initiation, SAR follow-up (AID 435018); assay type: functional
T2 sequence (P11940 whole entry): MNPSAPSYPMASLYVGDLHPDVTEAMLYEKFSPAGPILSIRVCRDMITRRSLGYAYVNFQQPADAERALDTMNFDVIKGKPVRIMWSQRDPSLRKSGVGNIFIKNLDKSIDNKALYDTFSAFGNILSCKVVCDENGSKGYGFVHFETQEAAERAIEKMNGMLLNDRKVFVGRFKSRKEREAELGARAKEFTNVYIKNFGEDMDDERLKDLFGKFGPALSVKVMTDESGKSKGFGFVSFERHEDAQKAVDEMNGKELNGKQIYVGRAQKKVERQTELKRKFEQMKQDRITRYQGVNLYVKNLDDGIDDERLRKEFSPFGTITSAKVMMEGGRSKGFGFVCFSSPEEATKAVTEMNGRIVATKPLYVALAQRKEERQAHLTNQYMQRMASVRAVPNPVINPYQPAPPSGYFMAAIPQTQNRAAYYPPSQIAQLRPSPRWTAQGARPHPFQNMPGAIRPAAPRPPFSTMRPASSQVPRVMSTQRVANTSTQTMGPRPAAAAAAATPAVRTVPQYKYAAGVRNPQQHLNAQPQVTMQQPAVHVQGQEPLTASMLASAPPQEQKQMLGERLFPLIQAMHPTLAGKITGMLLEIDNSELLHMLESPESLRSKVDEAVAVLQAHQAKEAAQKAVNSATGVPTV

[9] = biological target: Eukaryotic translation initiation factor 4H (Homo sapiens, UniProt Q15056); assay: eIF4H inhibition in translation initiation, SAR follow-up (AID 435011); assay type: functional
[10] = biological target: T2, Polyadenylate-binding protein 1; assay: PABP1 MLLE–PAM2 interaction inhibitors, dose response, miRNA deadenylation inhibitor project, biochemical, fluorescence polarization, Cy5-PAM2 peptide, secondary (AID 602260); assay type: functional; conditions: read-out: IC50_Mean
[11] = biological target: T3, Rac GTPase-activating protein 1 (Homo sapiens, UniProt Q9H0H5); assay: MgcRacGAP GTPase-activating activity inhibitors, confirmation, biochemical, ADP Hunter fluorescence, primary and confirmatory (AID 624330); assay type: functional
T3 sequence (Q9H0H5 whole entry): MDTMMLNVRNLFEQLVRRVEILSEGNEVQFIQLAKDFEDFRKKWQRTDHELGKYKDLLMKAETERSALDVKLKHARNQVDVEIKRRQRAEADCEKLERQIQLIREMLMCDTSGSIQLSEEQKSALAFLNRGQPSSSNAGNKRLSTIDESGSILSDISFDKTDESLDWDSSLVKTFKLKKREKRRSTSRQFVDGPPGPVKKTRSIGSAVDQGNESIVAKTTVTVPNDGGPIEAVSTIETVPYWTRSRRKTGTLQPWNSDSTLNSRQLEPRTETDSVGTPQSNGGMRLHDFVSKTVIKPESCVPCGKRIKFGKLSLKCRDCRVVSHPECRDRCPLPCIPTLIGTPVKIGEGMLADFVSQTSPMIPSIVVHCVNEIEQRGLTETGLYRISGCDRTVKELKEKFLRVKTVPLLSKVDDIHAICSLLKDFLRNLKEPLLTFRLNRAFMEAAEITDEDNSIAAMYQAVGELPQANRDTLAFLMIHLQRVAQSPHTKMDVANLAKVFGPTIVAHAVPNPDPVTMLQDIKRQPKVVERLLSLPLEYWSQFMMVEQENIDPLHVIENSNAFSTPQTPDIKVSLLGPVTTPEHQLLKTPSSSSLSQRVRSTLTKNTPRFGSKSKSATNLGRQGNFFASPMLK

Genome polyprotein = Genome polyprotein (dengue virus type 2, UniProt P29990); assay: Dengue-2 NS5 methyltransferase inhibitors, primary screen, biochemical, confirmation dose response (AID 588689); assay type: functional
[12] = biological target: T4, Voltage-gated N-type calcium channel alpha-1B subunit/Amyloid beta A4 precursor protein-binding family A member 1 (Homo sapiens, UniProt Q00975+Q02410); assay type: protein assay
T4 sequence (Q00975 whole entry): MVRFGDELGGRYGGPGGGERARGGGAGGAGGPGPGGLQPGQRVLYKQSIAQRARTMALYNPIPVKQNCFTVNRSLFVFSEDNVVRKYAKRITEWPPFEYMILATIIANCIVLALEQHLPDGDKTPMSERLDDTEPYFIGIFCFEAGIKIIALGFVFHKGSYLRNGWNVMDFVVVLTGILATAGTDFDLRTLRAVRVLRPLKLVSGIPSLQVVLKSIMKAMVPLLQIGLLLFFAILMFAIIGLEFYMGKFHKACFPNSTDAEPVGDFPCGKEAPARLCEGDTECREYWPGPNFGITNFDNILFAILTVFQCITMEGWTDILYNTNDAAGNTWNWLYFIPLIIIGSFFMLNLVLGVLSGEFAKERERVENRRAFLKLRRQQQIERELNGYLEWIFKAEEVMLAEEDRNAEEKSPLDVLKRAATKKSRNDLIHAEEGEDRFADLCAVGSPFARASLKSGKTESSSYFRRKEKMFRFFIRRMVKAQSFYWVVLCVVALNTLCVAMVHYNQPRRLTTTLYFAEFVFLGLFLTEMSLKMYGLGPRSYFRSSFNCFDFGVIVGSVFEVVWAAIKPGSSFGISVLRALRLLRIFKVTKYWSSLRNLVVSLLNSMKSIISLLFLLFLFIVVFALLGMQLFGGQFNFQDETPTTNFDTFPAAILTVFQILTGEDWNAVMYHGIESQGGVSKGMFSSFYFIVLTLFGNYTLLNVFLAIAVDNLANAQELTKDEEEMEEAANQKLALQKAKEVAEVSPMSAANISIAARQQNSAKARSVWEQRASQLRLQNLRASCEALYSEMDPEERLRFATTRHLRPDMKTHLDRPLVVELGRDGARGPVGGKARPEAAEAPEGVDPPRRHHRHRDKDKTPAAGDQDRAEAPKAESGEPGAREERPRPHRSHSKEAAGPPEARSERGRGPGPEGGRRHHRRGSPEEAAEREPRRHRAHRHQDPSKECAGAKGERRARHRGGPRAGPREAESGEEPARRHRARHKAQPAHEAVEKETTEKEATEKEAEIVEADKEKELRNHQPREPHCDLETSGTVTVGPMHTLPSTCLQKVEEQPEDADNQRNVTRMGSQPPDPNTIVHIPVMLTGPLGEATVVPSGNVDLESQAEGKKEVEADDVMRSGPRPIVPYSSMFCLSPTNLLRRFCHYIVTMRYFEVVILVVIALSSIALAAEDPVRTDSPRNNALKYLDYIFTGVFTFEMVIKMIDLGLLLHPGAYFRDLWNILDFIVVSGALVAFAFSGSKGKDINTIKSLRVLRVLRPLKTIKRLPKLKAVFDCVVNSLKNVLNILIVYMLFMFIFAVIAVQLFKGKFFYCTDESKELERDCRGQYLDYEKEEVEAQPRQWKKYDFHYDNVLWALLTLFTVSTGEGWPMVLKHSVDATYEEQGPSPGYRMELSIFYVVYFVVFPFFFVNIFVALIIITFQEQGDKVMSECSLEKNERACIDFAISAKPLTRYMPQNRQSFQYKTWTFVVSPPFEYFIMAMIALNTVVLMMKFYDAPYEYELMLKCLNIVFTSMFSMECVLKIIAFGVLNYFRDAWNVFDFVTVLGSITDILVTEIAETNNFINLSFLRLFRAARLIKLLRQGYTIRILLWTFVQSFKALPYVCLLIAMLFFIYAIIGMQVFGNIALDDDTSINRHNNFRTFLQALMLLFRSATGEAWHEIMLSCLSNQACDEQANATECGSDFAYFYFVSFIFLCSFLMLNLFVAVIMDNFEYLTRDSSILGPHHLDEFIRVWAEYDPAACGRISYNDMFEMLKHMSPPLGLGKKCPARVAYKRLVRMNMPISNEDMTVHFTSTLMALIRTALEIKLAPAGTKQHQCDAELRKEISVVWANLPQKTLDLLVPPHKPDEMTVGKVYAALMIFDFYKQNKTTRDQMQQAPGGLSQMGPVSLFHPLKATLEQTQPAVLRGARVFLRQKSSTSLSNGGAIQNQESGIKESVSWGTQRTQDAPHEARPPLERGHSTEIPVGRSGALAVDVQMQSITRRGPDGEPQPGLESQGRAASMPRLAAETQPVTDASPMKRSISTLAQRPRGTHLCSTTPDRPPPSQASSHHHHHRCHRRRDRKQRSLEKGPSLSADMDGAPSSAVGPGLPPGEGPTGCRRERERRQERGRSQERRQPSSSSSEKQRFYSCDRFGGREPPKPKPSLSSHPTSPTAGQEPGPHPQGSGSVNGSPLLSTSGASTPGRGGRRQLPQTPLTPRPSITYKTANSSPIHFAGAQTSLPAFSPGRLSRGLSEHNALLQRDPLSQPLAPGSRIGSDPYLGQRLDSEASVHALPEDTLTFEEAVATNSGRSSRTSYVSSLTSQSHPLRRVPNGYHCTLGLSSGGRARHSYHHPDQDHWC
T4 sequence (Q02410 whole entry): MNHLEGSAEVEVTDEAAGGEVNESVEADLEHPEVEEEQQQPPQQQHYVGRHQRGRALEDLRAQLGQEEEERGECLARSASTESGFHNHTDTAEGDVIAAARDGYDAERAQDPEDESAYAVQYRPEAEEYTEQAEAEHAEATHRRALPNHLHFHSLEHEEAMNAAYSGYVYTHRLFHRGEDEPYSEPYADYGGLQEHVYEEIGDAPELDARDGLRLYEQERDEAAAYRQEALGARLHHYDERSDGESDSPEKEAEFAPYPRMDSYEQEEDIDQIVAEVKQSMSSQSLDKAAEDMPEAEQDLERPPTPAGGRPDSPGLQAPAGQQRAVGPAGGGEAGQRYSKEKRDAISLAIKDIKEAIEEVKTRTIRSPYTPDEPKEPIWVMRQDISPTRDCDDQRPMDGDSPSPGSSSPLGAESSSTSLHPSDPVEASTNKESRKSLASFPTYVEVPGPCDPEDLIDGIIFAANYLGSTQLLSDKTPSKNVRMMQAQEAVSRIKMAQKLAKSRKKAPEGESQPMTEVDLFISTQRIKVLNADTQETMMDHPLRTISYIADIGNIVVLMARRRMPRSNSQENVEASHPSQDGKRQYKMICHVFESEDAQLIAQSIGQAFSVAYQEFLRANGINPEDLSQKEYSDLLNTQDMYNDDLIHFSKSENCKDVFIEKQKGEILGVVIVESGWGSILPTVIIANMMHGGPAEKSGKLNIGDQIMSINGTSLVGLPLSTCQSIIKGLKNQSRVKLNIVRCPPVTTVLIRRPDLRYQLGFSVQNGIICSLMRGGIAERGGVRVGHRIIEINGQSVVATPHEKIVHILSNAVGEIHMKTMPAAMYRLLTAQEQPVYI

[13] = biological target: T2, Polyadenylate-binding protein 1; assay: PABP1 MLLE–PAM2 binding inhibitor potency, dose response, biochemical, fluorescence polarization, FITC-PAM2 peptide (AID 602259); assay type: functional; conditions: read-out: IC50_Mean
[14] = biological target: T4, Voltage-gated N-type calcium channel alpha-1B subunit/Amyloid beta A4 precursor protein-binding family A member 1; assay type: protein assay; remark: listed apart in the source
[15] = inhibitors of SNCA 5'UTR-driven reporter translation, confirmation, H4 neuroglioma cells, luminescence (AID 1988); assay type: functional, cell-based
[16] = Luminescence Cell-Based Dose Response HTS to Identify Inhibitors of 5'UTR Stem-Loop Driven Prion Protein mRNA Translation in H4 Neuroglioblastoma Cells. [Related pubchem assays: 1827 (Project Summary), 1813 (Primary HTS)]; assay type: functional
[17] = inhibitors of firefly luciferase expression or activity, dose response, H4 neuroglioma cells, luminescence (AID 1990); assay type: functional, cell-based
[18] = biological target: G-protein coupled receptor 55 (Homo sapiens, UniProt Q9Y2T6); assay: GPR55 antagonists blocking LPI-driven arrestin recruitment, primary screen, imaging, U2OS, beta-arrestin-GFP, LPI agonist (AID 2013); assay type: functional;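 further: antagonist potency measured as reduced agonist-driven arrestin aggregation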

SMILES: CCCCn1c(SCC(=O)Nc2nnc(C(C)C)s2)nc2c1c(=O)n(C)c(=O)n2C
- IC50 (HEK293 [1]): > 20 µM (inactive)
- EC50 (HEK293 [2]): 7.02 µM (active)
- IC50 (Tumor necrosis factor): 5.82 µM (active)
- IC50 (HEK293 [3]): > 20 µM (inactive)
- IC50 [4]: 5.79 µM (active)
- IC50 [5]: 6.89 µM (active)
- IC50 (HEK293 [6]): 9.58 µM (active)
- IC50 (HEK293 [7]): > 20 µM (inactive)

SMILES: COc1ccc(C(=O)Nc2cccc3ncccc23)cc1
- IC50 [8]: > 100 µM (inactive)
- IC50 [9]: > 100 µM (inactive)

SMILES: O=C(O)CCn1cc(C=C2C(=O)NC(=S)NC2=O)c(-c2ccccc2)n1
- IC50 [10]: > 66 µM (inactive)
- IC50 [11]: 86.5 µM (active)
- IC50 (Genome polyprotein): 7.65 µM (active)
- IC50 [12]: 13.1 µM (active)
- IC50 [13]: > 66 µM (inactive)
- IC50 [14]: 19.8 µM (active)

SMILES: COc1ccc(C2c3ccc(O)cc3Oc3ncn4nc(-c5cccnc5)nc4c32)cc1OC (centres undefined)
- EC50 [15]: > 120 µM (not active)
- EC50 [16]: 52.3 µM (active)
- EC50 [17]: > 120 µM (not active)
- IC50 [18]: 1.99 µM (active)

SMILES: Nc1nc2ccccc2n1Cc1ccccc1Cl
- IC50 (Tumor necrosis factor): 12.5 µM (active)
- IC50 [4]: 12.9 µM (active)
- IC50 [5]: 15.3 µM (active)
- IC50 (HEK293 [7]): > 20 µM (inactive)
